# Key:
# Format in all cases: cell-based, human
# D283MED cells = assay: Proliferation assay MTS, D283MED; details: transient transfection vs mock-transfected cells
# Protocol: (§1) Cell proliferation was determined using the CellTiter96 AQueous Non-Radioactive Cell Proliferation Assay Kit (Promega Madison, Wis.). The cells were seeded into 96-well plates at a density of 1×10^3 cells/well in EMEM without or with FBS. After 0, 24, 48 and 72 h, MTS ([3-(4,5-dimethylthiazol-2-yl)-5-(3-carboxymethoxyphenyl)-2-(4-sulfophenyl)-2H-tetrazolium]) and PMS (phenazine methosulfate) were added to each well and after 4 h the absorbance of each well was measured at 490 nm (OD490) using Multilabel counter Victor^3 (Perkin Elmer). Each condition was performed with five wells and each experiment was repeated twice.
# Daoy cells [1] = assay: Proliferation assay MTS, Daoy; details: stable 199bMC1 and 199bSC1 clones vs empty-vector clone
# Protocol: as §1
# Proliferation assay (MTS) was made by kit CellTiter96 AQueous Non-Radioactive Cell Proliferation Assay (Promega) for 72 h. The cell lines daoy, MDA-231T and 4t1 treated with the control SNALP and with the miR 199b-5p were transferred in 96 multiwell at the concentration of 1000 and 3000 cells (daoy, MDA-231T and 4t1, respectively) in 100 μl of complete medium. For each experimental point were done 5 replicates. After 24, 48 e 72 h in each well was added 20 μl of 5× solution. After 4 h was read the absorbance of the formazane at 490 nm by Multilabel counter Victor3 (Perkin Elmer).
# Daoy cells [2] = assay: In-vitro cell-motility assay (Boyden chamber); details: 199bSC1 vs empty vector control, 0.5% FBS chemoattractant
# Protocol: The control DAOY cell line and the stable DAOY-199bSC1 clone were used in the ‘cell-motility’ assays. Cell migration assays were performed with 8-μm pore size Transwells (Costar). The cells were suspended by trypsinization, washed, and resuspended in 100 μl serum-free DMEM containing 0.1% BSA (5×10^4 cells) and placed in the upper chamber of the Transwells. The lower chamber was filled with 600 μl serum-free DMEM supplemented with 0.5% FBS, as the chemo-attractor. The cells were allowed to migrate for 1 h at 37° C. Cells migrating to the lower side of the polycarbonate membrane were fixed with 2.5% glutaraldehyde and stained with Hematoxylin solution (Sigma). The cells were counted, and the analysis performed on three Transwells for each condition, and each experiment was repeated twice.
substance,measurement,setting,value
"miR-199b-5p: mature microRNA CCCAGUGUUUAGACUAUCUGUUC (SEQ ID NO:11); over-expressed from pre-miR-199b construct, e.g. stable Daoy clones 199bSC1, 199bMC1 (listed as RNA, chemistry not fully specified)",proliferation,D283MED cells,decreased proliferation
same,proliferation rate,Daoy cells [1],markedly reduced proliferation rates
same,cell motility,Daoy cells [2],did not lead to a decrease in cell motility

# Source: patent US9017938B2, “Use of microrna-199b-5p in medical and diagnostic field” (Advanced Accelerator Applications, priority 2009, dated 2015)
